Counter-ions that a name gives are not always drawn. Like-named read-outs stand apart in the source and are kept apart here. *1 amine or outer side, *2 acyl side, *3 side chain or, on linkers, in order; H or OH if unused. Where a SMILES comes first, the peptide text is derived from it. Bridges are numbered along the chain shown (N, C = ends). Roman numbers before positions name the chains, in order. [ ]: non-standard residue; d: D form. Actinocin(9to1) = Cc1c2oc3c(C)ccc(C(=O)[*:1])c3nc-2c(C(=O)[*:2])c(N)c1=O; NMeV = CN[C@H](C(=O)O)C(C)C; Sar = CNCC(=O)O
Legend:
TU-BcX-4IC tumoroids [1] = test: Library screening of NCI approved anti-cancer drugs: tumoroid integrity/disintegration by nuclear count in projection images (viability/spheroid disintegration assay); details: for minimal effective concentration: Homo sapiens, TU-BcX-4IC, 120 h, read-out: Effective concentration, 3D tumoroids, 5 days treatment, tumoroid integrity by nuclear count, tested at 10 nM to 100 uM; for Efficacy at low concentrations: library screen, tumoroid integrity by nuclear count; for Viability HIT?: also hit in viability/spheroid disintegration assay, 10 μM
Protocol: In addition, positive and negative controls were included in the test plates.
During incubation with compounds, tumoroids were monitored daily using TL imaging. Image analysis allowed characterization of tumoroid size, diameter, compactness, and integrity, as well as optical density (FIG. 2B, FIG. 7). Images of tumoroids were taken prior to compound treatment, and during day 3 and day 5 of compound treatment. For the end point assay, tumoroids were stained with viability and nuclear dyes on day 5 of compound treatment. Cells were stained with a combination of Hoechst, calcein AM, and Ethidium Homodimer III (EthD-III) and analyzed using high content imaging for complex phenotypic analysis; a subset of plates was set aside for additional assays including Cell Painting.
Images of organoids were taken with a 10× objective using Z-stack with a step size of 8 mm. Nuclei, live cells, and dead cells of stained cells were detected using DAPI, FITC, and TexasRed channels respectively. Maximum projection images were created from Z-stacks and analyzed as described in Methods. Multiple read-outs were generated characterizing spheroid area, diameter, intensities, and cell viability. In addition, cells inside each spheroid were counted using a nuclear stain. […] Suspended cells were plated into U-shape 384 well plates using a Biomek i7 automated liquid handler, incubated for 48 hours, and then treated with compounds, stained, and imaged. The protocols for compound additions, media, and staining included gentle media dispensing processes. Consecutively, tumoroids were cultured and monitored by automated imaging. Additionally, use of a collaborative robot enabled moving plates from the incubator to the imaging system, where transmitted light imaging or fluorescent imaging protocols were initiated.
For screening the compound library, maximum projection images may be employed. Spheroid disintegration is visible as an increase of spheroid size, in contrast to nicely shaped, round images of intact spheroids. Tumoroid disintegration can be described by several measurements: for example, increase in organoid area/diameter. Most accurate measurements may be done by counting cells or nuclei inside organoids using maximum projection images. […] Disintegrated tumoroids are made up of cells which are not held together in a tight aggregate but instead are loosely piled up in the well bottom resulting in 1) an increased projected area and 2) an increase in nuclear count in the projection images.
Simple nuclei count analysis in projection images was used as a reliable surrogate marker for organoid integrity/dis-integration.

TU-BcX-4IC tumoroids [2] = test: Label-free transmitted light imaging of tumoroids, deep learning segmentation (IN Carta); assay type: cell-based, human; details: 10 uM, 5 days, no staining, 10× objective
Protocol: Images were analyzed using SYNAP module of InCartasoftware (Molecular Devices). Analysis mask shown in yellow.
A deep learning-based segmentation (IN Carta Image Analysis Software) approach was used to find all tumoroid objects in transmitted light, either intact or affected. Following segmentation and data extraction, a machine learning tool was utilized to classify all tumoroids into intact, intermediate or severely affected categories. Affected tumoroids were flagged by increase in the object areas (criteria were set as AVERAGE 2*STDEV from the DMSO-treated), allowing detection of effective compounds (FIG. 7, Table 6). An advantage of this method is that compound effects could be interrogated in a label-free manner during multiple time points. However, the analysis allowed some ambiguity in determining accurate areas of the objects, especially when the phenotypic changes were weak or moderate (FIG. 7). The endpoint fluorescent imaging and analysis enabled more robust measurements and compound selection (Tables 5 and 6).
Transmitted light (TL) and fluorescent (FL) images were acquired on the ImageXpress Confocal HT.ai High-Content Imaging System (Molecular Devices) and images analyzed using MetaXpress High-Content Image Analysis Software. Tumoroid images were acquired in TL with approximately 60 μm offset. Zstack images were acquired with the 10× objectives using confocal mode. Best focus projection images were used for TL analysis, and maximum projection images were used for FL analysis. MetaXpress Software or IN Carta Image Analysis Software was used for analysis.

TU-BcX-4IC 2D culture [3] = test: CellTiter-Glo 3D ATP assay, 2D culture; details: for EC50: Homo sapiens, TU-BcX-4IC, 120 h, read-out: EC50, ATP 2D
Protocol: (§1) Cell metabolism may be measured by ATP level as another readout for effects of anti-cancer drugs that is related to cytotoxicity. […] Compounds may be tested using 7 point 5× dilutions starting from 100 uM. In the present examples, compound effects on 2D culture and 3D cultures were compared, using imaging and CellTiter-Glo 3D methods. Cultures were set up in parallel, using same cell number (2000). Cultures were allowed to grow for 48 hours, then treated with compounds for 5 days.

TU-BcX-4IC 3D cultures [4] = test: CellTiter-Glo 3D ATP assay, 3D culture; details: for EC50: Homo sapiens, TU-BcX-4IC, 120 h, read-out: EC50, ATP 3D
Protocol: as §1

TU-BcX-4IC tumoroids [5] = test: Secondary follow-up 3D assay, 7-point concentration curves, tumoroid disintegration measurement; assay type: cell-based, human; details: Homo sapiens, TU-BcX-4IC, 120 h
Protocol: 10 compounds, including panobinostat, carfilzomib, and bortezomib were tested across 7 concentrations in the 1-10000 nM range. Spheroids were treated for 5 days with these compounds, then stained as described above (FIG. 4). […] EC50 values (Table 2) were determined using tumoroid disintegration measurement (nuclear count in projection images).
Automated staining of spheroids was performed for one hour. After staining, dye solution was replaced with 1×PBS.

TU-BcX-4IC 2D culture [6] = test: Imaging read-out, 2D culture; details: Homo sapiens, 120 h, read-out: EC50, Imaging 2D
Protocol: (§2) Cell metabolism may be measured by ATP level as another readout for effects of anti-cancer drugs that is related to cytotoxicity. In the present examples, a subset of 12 compounds were used for evaluation of compound effects, using the CellTiter-Glo 3D assay (Promega), which detects ATP levels. Compounds may be tested using 7 point 5× dilutions starting from 100 uM. In the present examples, compound effects on 2D culture and 3D cultures were compared, using imaging and CellTiter-Glo 3D methods. Cultures were set up in parallel, using same cell number (2000). Cultures were allowed to grow for 48 hours, then treated with compounds for 5 days.
(§3) Images were analyzed using MetaXpress Software (Molecular Devices). Count Nuclei or Cell Scoring application modules were used for nuclear count live/dead assessment, or evaluation of cell number positive for specific markers. Output measurements included spheroid width, spheroid area, average intensity for calcein AM or EthD-III, counts of all nuclei, and evaluation of average nuclear size and average intensities. In addition, calcein AM-positive cells were counted, and their area and intensity values were recorded. In addition to cell count, areas and intensities could be determined for live (EthD-III negative) and dead (EthD-III positive) cells.

TU-BcX-4IC 3D cultures [7] = test: Imaging read-out, 3D culture; details: Homo sapiens, 120 h, read-out: EC50, Imaging 3D
Protocol: as §2, §3

TU-BcX-4IC tumoroids [8] = test: Cell Painting assay adapted for 3D tumoroids, phenotypic distance score and cluster analysis; details: 10 μM, phenotypic distance relative to DMSO controls
Protocol: For phenotypic profiling, the tumoroids were treated with a single 10 μM concentration of compound, using the methods described above. Notable changes in the staining protocol included increased times for dye incubation, fixation, and permeabilization. […] Images were acquired with Z-stacks using 20× magnification, and the analysis was carried out on projection (maximum) images.
Unlike the previous analysis that included cell count or live-dead evaluation, multiple read-outs may be collected from the whole spheroid to form their phenotypic profile. […] Instead, the spheroid images may also acquired in transmitted light (bright field), and these images may be used to identify the spheroid structures using a deep learning-based image segmentation approach which may improve the analysis. Features extracted from each spheroid may include object morphologies, intensities, and texture measurements for, e.g., the six cell stains and bright field images.
To determine hits from the assay, a phenotypic distance score may be calculated based on the PCA (principal component analysis) components.
This score is a measure of the phenotypic effect of the compounds on the tumoroids relative to the controls. All hits may then be clustered based on their phenotypic profiles using the normalized principal component scores.
To image the organoids labeled with the cell painting dyes, the ImageXpress Confocal HT.ai system, equipped with a laser light source, was used for image acquisition. The confocal mode (pinhole size 60 μm) was used to image organoids with a 20× Plan Apo Lambda, NA 0.75 objective, with z-stacking enabled (5p m step size). The maximum projection image was selected in the acquisition setup.
Images were analyzed using MetaXpress Software (Molecular Devices). […] For the Cell Painting analysis, image analysis was done in the IN Carta image analysis software. To segment the organoids, a deep learning-based model was created based on the TL channel to segment individual organoids. Following segmentation, measurements that include intensity, shape, area, and texture were extracted from all 6 fluorescent channels. In total, 210 analytical features were obtained from each organoid.
The plate was first incubated with MitoTracker DeepRed (500 nM) for 2 hours. The samples were fixed with 4% paraformaldehyde (PFA) in HBSS for 60 minutes. All wash steps were carried out by exchanging half the volume in each well with HBSS to minimize displacement of the organoids from the center of the well.
Measurements from IN Carta were exported as a CSV file and uploaded into StratoMineR (Core Life Analytica), a web-based data analytics platform for hit picking and phenotypic clustering.

[9] = 3D assay, 7-point concentration curves, 5 days, nuclear count in projection images, read-out: EC50

SMILES | Tumoroids effected by compound in transmitted light images (TU-BcX-4IC tumoroids [2]) | EC50 (TU-BcX-4IC 2D culture [3]) [nM] | EC50 (TU-BcX-4IC 3D cultures [4]) [nM] | EC50 (TU-BcX-4IC tumoroids [5]; [9]) [nM] | EC50 (TU-BcX-4IC 2D culture [6]) [nM] | EC50 (TU-BcX-4IC 3D cultures [7]) [nM] | Viability HIT? (TU-BcX-4IC tumoroids [1]) | Distance Score (TU-BcX-4IC tumoroids [8]) | further results
COc1cccc2c1C(=O)c1c(O)c3c(c(O)c1C2=O)C[C@@](O)(C(=O)CO)C[C@@H]3O[C@H]1C[C@H](N)[C@H](O)[C@H](C)O1 [doxorubicin] | effected by compounds |  |  |  |  |  |  |  | Nuclear count in projection images (qualitative) (TU-BcX-4IC tumoroids [1]; 3D tumoroids, 5 days): decrease in counted nuclei
CC(C)C[C@H](NC(=O)[C@H](Cc1ccccc1)NC(=O)c1cnccn1)B(O)O [Bortezomib] |  | 10 | 15 | 17 | 10 | 70 |  |  | minimal effective concentration (TU-BcX-4IC tumoroids [1]): 0.01 µM; Efficacy at low concentrations (TU-BcX-4IC tumoroids [1]): efficacy at low concentrations
COc1cc(OC)cc(N(CCNC(C)C)c2ccc3ncc(-c4cnn(C)c4)nc3c2)c1 [erdafitinib] | effected by compounds |  |  |  |  |  |  |  | 
Cc1[nH]c2ccccc2c1CCNCc1ccc(/C=C/C(=O)NO)cc1 [Panobinostat] |  | 46 | 84 | 54 | 6 | 141 |  |  | 
CC(=O)Nc1cccc(-n2c(=O)n(C3CC3)c(=O)c3c(Nc4ccc(I)cc4F)n(C)c(=O)c(C)c32)c1 [Trametinib] |  | 7330 | 2620 | 70 | 6270 | 8820 |  |  | 
C/C=C1\NC(=O)[C@H]2CSSCC/C=C/[C@H](CC(=O)N[C@H](C(C)C)C(=O)N2)OC(=O)[C@H](C(C)C)NC1=O [Romidepsin] |  | ~10 | ~10 |  | ~10 | < 10 |  |  | EC50 (TU-BcX-4IC tumoroids [5]): 36 nM
O=C1c2c(O)ccc(O)c2C(=O)c2c(NCCNCCO)ccc(NCCNCCO)c21 [Mitoxantrone] | effected by compounds |  |  |  |  |  | yes | 6.688 | 
CC(C)C[C@H](NC(=O)[C@H](CCc1ccccc1)NC(=O)CN1CCOCC1)C(=O)N[C@@H](Cc1ccccc1)C(=O)N[C@@H](CC(C)C)C(=O)[C@@]1(C)CO1 [Carfilzomib] |  | 1040 | 5820 |  | 1050 | 73 | no | 5.007 | 
Cc1c2oc3c(C)ccc(C(=O)N[C@@H]4C(=O)N[C@H](C(C)C)C(=O)N5CCC[C@H]5C(=O)N(C)CC(=O)N(C)[C@@H](C(C)C)C(=O)O[C@@H]4C)c3nc-2c(C(=O)N[C@@H]2C(=O)N[C@H](C(C)C)C(=O)N3CCC[C@H]3C(=O)N(C)CC(=O)N(C)[C@@H](C(C)C)C(=O)O[C@@H]2C)c(N)c1=O [Dactinomycin] (I: T[dV]P[Sar][NMeV] / II: T[dV]P[Sar][NMeV]; ester I:1-I:C, II:1-II:C; linker I:N-II:N via Actinocin(9to1)) |  | < 10 | 5 |  | < 10 | 33 |  |  | Efficacy at low concentrations (TU-BcX-4IC tumoroids [1]): efficacy at low concentrations
COc1c(OCCCN2CCOCC2)ccc2c1N=C(NC(=O)c1cnc(N)nc1)N1CCN=C21 [Copanlisib tris-HCl] | effected by compounds |  |  | 28 |  |  | yes | 5.147 | minimal effective concentration (TU-BcX-4IC tumoroids [1]): 0.1 µM
CO[C@H]1C[C@@H]2CC[C@@H](C)[C@@](O)(O2)C(=O)C(=O)N2CCCC[C@H]2C(=O)O[C@H]([C@H](C)C[C@@H]2CC[C@@H](OC(=O)C(C)(CO)CO)[C@H](OC)C2)CC(=O)[C@H](C)/C=C(\C)[C@@H](O)[C@@H](OC)C(=O)[C@H](C)C[C@H](C)/C=C/C=C/C=C/1C [Temsirolimus] |  |  |  |  | 10000 | 8520 | no | 5.699 | minimal effective concentration (TU-BcX-4IC tumoroids [1]): 1 µM; EC50, ATP 2D (TU-BcX-4IC 2D culture [3]; 2D culture, 2000 cells, 5 days treatment, CellTiter-Glo 3D): no fit; EC50, ATP 3D (TU-BcX-4IC 3D cultures [4]; 3D culture, 2000 cells, 5 days treatment, CellTiter-Glo 3D): no fit
